Test results taken from BindingDB's records for patent US9353116 (University of California, 2016).

What was measured:
[1] = molecular target: T1, Proto-oncogene tyrosine-protein kinase Src [251-533] (Gallus gallus, UniProt P00523); assay: In vitro Kinase Assay; details: pH 8
T1 construct: 251-533
Protocol: (§1) In vitro kinase assays for c-Src variants were performed in 50 mM Tris (pH 8.0), 10 mM MgCl2 and 1 mg/mL BSA. When obtaining kinetic parameters (kcat, Km) kinase and peptide substrate (IYGEFKKK) (SEQ ID NO:51) concentrations were 2 nM and 500 μM, respectively, while ATP concentrations ranged from 2000-0.655 μM. Addition of nonradioactive ATP supplemented with 32P ATP (3,000 Ci/mmol, NEN) was used to initiate kinase reactions. Time points were selected such that product formation never exceeded 10%. Reactions were quenched by spotting 3 μL quantities onto phosphocellulose sheets (P81, Whatman). Afterwards, the sheets were washed 3×5 minutes in 0.5% phosphoric acid and dried. Radioactivity was measured by phosphorimaging and recorded on a Typhoon fluorescence imager (Molecular Dynamics).

[2] = molecular target: T2, Proto-oncogene tyrosine-protein kinase Src [251-533,T338C] (Gallus gallus, UniProt P00523, T338C); assay: In vitro Kinase Assay; details: pH 8
T2 construct: 251-533
Protocol: as §1

Row | SMILES | IC50 [1] | IC50 [2]
1 | CC(=O)c1cccc(Cc2nn(C(C)C)c3ncnc(N)c23)c1 [US9353116, 14] | > 5000 nM | 4520 nM
2 | C=CS(=O)(=O)Nc1ccc(Nc2ncnc3cc(OC)c(OC)cc23)cc1 [US9353116, 20] | 2170 nM | 560 nM
